Experimental data as given in patent US11433048B2, “CXCR4 receptor-binding compounds useful for increasing interferon level” (CENTRE NATIONAL de la RECHERCHE SCIENTIFIQUE, priority 2016, dated 2022).
Structures can show the parent of a compound that is named as a salt. Where two headings read alike, the source gives them in different places.

How the values were obtained:
HIV-activated pDC [1] = format: cell-based, human
HIV-activated pDC [2] = settings: ELISA, AMD3100 20 μM pre-treatment, then CB, HIV overnight
[3] = AMD3100 20 μM pre-incubation, histamine or CB 10 μM, HIV-X4 overnight, normalized to RPL13A
[4] = AMD3100 alone, HIV-stimulated pDC
[5] = AMD-3100 20 μM, then CB 10 μM, HIV overnight, normalized to RPL13A

## Cl.Cl.NCCc1c[nH]cn1 [histamine, Histamine dihydrochloride]
HIV-activated pDC [1]
  production of IFN-I by HIV-stimulated pDC: inhibit

## NC(=NCc1ccc(Cl)cc1)SCCCc1cnc[nH]1 [CB, clobenpropit dihydrobromide]
HIV-activated pDC [1]; amine-type compounds, 10 μM
  production of IFN-I by HIV-stimulated pDC: inhibit

## c1cc(CN2CCCNCCNCCCNCC2)ccc1CN1CCCNCCNCCCNCC1 [AMD3100, plerixafor]
HIV-activated pDC [2]
  IFN-a production inhibited by histamine or CB in HIV-activated pDC (FIG. 2): could restore
HIV-activated pDC [1]; [3]
  IFN-a mRNA expression inhibited by histamine or CB in HIV-activated pDC (FIG. 1): could restore
  IFN-β mRNA expression inhibited by histamine or CB in HIV-activated pDC (FIG. 1): could restore
  TRAIL mRNA expression inhibited by histamine or CB in HIV-activated pDC (FIG. 1): could restore
HIV-activated pDC [1]; AMD3100 (20 μM) 1 hour, then histamine or CB (10 μM) 1 hour, HIV-1 overnight
  biological activities of histamine and CB on HIV activated-pDC: drastically abolished
HIV-activated pDC [1]; [4]
  TRAIL expression by HIV-activated pDC: did not block
  type I IFN expression by HIV-activated pDC: did not block
HIV-activated pDC [1]; [5]
  IFN-stimulated gene 56 (ISG56) mRNA expression in HIV-activated pDC (restoration, FIG. 3A): confirmed
  IFN-γ mRNA expression in HIV-activated pDC (restoration, FIGS. 3A-3C): confirmed
  IL-6 mRNA expression in HIV-activated pDC (restoration, FIG. 3C): confirmed
